Experimental data: patent publication US20250092044A1, “Kinase Inhibitors” (Incyte Corporation, priority 2023, published 2025)

Experiments:
[1] = target: catalytic domain (JH1) of human JAK2 (Homo sapiens (Human), UniProt O60674); assay: JAK2 LanthaScreen JH1 Binding Assay; conditions: read-out: JH1 Bind IC50
How it was run: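 FLAG-tagged biotinylated JH1 (aa 826-1132, baculovirus-expressed), 1.5 nM, with serially diluted compound, 50 nM fluorescent tracer and 0.5 nM streptavidin-Tb in pH 7.5 Tris buffer, 2 h at 25 °C; nonspecific binding with 2 mM ATP. TR-FRET read, IC50 by four-parameter fit.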

[2] = target: FLT3 (Homo sapiens (Human), UniProt P36888); assay: FLT3 Enzymatic Assay; assay type: biochemical; conditions: 1 mM ATP
How it was run: (§1)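 Room-temperature HTRF kinase assay (665/620 nm ratio) with 0.011 nM FLT3, 1 mM ATP, 500 nM biotinylated TK substrate in HEPES pH 7.0 buffer with MgCl2 and DTT; 0.5% DMSO final. Read after 60 min incubation; IC50 fitted from percent control activity versus log concentration, no-ATP wells as negative control.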

[3] = test system: FLT3; assay: FLT3 Enzymatic Assay; assay type: biochemical
How it was run: as §1

[4] = target: TRKA (Homo sapiens (Human), UniProt P04629); assay: TRKA Enzymatic Assay; assay type: biochemical; conditions: 1 mM ATP
How it was run: (§2)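 Reaction contained 0.58 nM TRKA, 1 mM ATP, 500 nM biotinylated TK substrate and 62.5 nM SEB reagent in HEPES 50 mM pH 7.0 with 10 mM MgCl2, 1 mM DTT and 0.1 mM orthovanadate, 0.5% DMSO, ATP-initiated. After 60 min at room temperature, the TR-FRET 665/620 nm ratio was read. IC50 was fitted from percent control activity versus log concentration, with DMSO and no-ATP wells as controls.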

[5] = test system: TRKA; assay: TRKA Enzymatic Assay; assay type: biochemical
How it was run: as §2

[6] = test system: pSTAT5 in SET-2 cells in whole blood; assay: pSTAT5 SET-2 Whole Blood MSD Assay; assay type: cell-based; conditions: Homo sapiens, 2 hour incubation, read-out: SET2 WB IC50
Experimental: SET-2 cells shipped from ABS, RPMI1640 medium, Fetal Bovine Serum from Gibco, Phospho-STAT5a,b Whole Cell Lysate Kit from Mesoscale, Retronectin (Recombinant Human Fibronectin Fragment) from TaKaRa, 96 well cell culture plate flat bottom from Corning, lysis buffer from Cell Signaling Technology, and sterile PBS from Gibco. Whole Blood from by BioIVT.
SET-2 cells were cultured in RPMI media with 20% FBS at 37° C. humidified incubator supplied with 5% CO2. On the day of the assay, 40 uL per well of diluted retronectin working solution was added to sterile 96-well clear flat bottom tissue culture plates (1:200 dilution of retronectin in sterile PBS) and incubated at 37 C for 1 hour. After 1 hour, the retronectin working solution was aspirated and SET-2 cells were seeded at 100,000/well in RPMI+20% FBS. Cells were incubated overnight at 37° C. and 5% CO2. The next day, the medium was removed and 40 μL of diluted compounds in serum-free RPMI and whole blood was added to the cells for a 2 hour incubation at 37° C. and 5% CO2. The compound starting concentration is 20 μM and 2.5 fold serial diluted down to 0.21 nM. The whole blood and compound mixture was then aspirated off using the BlueCat plate washer and washed 1× with PBS. Cells were lysed by adding 40 μL of 3× complete lysis buffer and shaken at room temperature for 45-60 minutes (complete lysis buffer consists of Cell Signaling Technology lysis buffer diluted to 3× and supplemented with Mesoscale's protease inhibitor, phosphatase I inhibitor, and phosphatase II inhibitor). The pSTAT5 MSD plates were blocked by adding 150 μL of Blocker A solution per well to the MSD plates and incubated at room temperature with shaking at 400 rpm for one hour or longer. After blocking, plates were washed 3× with 300 μL/well of 1× Tris Wash Buffer. After lysis, added 25 μL per well of lysed sample was added to MSD plate and incubated with shaking at 4° C. wrapped in foil overnight. The next day, plates were washed again and 25 μL/well of diluted 1× Detection Antibody Solution, wrapped in foil, and incubated at room temperature with shaking at 400 rpm for 1 hour. Plates were then washed again and lastly, 150 μL/well of 1× Read Buffer T was added to all wells. Plates were analyzed on MSD Discovery within 5 minutes. […] Data analysis was performed in GraphPad Prism using a 4-parameter fit and data was reported as Average±SD.

Sequence of FLT3 (Homo sapiens (Human), UniProt P36888) (P36888 27-993, species assumed): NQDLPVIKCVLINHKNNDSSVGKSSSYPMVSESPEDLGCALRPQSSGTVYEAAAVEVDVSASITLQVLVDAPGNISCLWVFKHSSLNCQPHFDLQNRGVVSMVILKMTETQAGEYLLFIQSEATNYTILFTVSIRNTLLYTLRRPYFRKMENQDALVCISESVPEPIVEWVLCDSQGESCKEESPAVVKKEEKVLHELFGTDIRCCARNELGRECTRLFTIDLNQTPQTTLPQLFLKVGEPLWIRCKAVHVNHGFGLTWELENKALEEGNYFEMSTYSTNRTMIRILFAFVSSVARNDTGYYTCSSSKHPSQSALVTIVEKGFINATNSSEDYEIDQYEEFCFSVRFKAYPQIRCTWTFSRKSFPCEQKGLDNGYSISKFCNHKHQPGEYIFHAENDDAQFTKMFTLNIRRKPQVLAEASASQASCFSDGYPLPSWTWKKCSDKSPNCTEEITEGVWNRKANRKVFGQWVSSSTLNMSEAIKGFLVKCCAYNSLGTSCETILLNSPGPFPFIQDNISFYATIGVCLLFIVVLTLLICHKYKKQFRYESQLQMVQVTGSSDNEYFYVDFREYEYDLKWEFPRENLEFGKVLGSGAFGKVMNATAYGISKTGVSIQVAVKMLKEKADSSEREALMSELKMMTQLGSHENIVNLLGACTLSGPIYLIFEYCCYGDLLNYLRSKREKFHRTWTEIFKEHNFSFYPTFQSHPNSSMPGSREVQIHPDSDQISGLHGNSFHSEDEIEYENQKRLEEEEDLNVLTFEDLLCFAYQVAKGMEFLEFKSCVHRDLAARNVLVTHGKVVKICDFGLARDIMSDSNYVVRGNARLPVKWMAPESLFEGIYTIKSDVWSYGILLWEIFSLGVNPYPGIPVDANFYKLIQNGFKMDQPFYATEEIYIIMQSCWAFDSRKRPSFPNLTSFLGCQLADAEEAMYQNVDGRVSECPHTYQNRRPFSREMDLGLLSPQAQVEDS
Sequence of catalytic domain (JH1) of human JAK2 (O60674 826-1132): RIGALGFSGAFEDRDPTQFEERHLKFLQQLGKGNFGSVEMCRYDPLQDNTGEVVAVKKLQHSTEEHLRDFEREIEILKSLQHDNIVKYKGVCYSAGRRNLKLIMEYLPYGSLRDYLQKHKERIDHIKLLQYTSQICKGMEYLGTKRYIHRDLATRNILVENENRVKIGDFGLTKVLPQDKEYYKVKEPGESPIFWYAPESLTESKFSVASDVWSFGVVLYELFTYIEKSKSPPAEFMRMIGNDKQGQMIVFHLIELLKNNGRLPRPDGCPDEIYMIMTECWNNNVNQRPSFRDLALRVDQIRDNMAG
Sequence of TRKA (Homo sapiens (Human), UniProt P04629) (P04629 33-796, species assumed): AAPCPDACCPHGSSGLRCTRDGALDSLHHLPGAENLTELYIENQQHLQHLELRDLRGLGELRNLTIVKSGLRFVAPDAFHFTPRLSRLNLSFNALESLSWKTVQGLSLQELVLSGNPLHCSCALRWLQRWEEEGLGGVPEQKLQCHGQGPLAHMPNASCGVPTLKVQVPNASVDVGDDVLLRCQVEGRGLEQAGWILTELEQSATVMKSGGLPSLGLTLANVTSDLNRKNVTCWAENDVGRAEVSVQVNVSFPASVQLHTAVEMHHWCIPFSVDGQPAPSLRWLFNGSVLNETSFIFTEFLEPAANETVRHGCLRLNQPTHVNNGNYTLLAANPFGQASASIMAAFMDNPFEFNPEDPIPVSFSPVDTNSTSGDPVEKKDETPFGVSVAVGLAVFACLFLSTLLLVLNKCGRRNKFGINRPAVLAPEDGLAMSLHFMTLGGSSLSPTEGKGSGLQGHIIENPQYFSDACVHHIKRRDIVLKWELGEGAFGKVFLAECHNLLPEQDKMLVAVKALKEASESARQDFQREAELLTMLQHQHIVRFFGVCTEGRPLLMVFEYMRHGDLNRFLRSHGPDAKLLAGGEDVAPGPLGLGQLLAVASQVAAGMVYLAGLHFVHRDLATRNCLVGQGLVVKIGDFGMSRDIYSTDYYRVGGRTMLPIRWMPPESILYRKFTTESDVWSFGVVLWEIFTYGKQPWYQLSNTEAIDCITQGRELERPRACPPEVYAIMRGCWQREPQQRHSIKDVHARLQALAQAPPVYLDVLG

| SMILES | IC50 [1] [nM] | IC50 [2] [nM] | Selectivity FLT3/JH2 V617F [3] | IC50 [4] [nM] | Selectivity TRKA/JH2 V617F [5] | IC50 [6] [nM] |
| --- | --- | --- | --- | --- | --- | --- |
| [2H]C([2H])([2H])n1c(=O)n([C@@H]2CC[C@@H](NC(=O)OC)C2)c2c3c(-c4ccc5c(cnn5C(C)C)c4)c(-c4ccc(CN(C)C)cc4)[nH]c3ncc21 [Example 26, Methyl ((1R,3R)-3-(7-(4-((dimethylamino)methyl)phenyl)-8-(1-isopropyl-1H-indazol-5-yl)-3-(methyl-d3)-2-oxo-3,6-dihydroimidazo[4,5-d]pyrrolo[2,3-b]pyridin-1(2H)-yl)cyclopentyl)carbamate] | > 1000 | 250 to 1250 | **** (selectivity of >1750-fold to ≤5000-fold) | 1250 to 2500 | ***** (selectivity of >5000-fold to ≤12500-fold) | ≤ 2500 |
| [2H]C([2H])([2H])N(Cc1ccc(-c2[nH]c3ncc4c(c3c2-c2ccc3c(c2)CC(C)(C)O3)n([C@@H]2CC[C@@H](NC(=O)OC)C2)c(=O)n4C([2H])([2H])[2H])cc1)C([2H])([2H])[2H] [Example 25, Methyl ((1R,3R)-3-(7-(4-((bis(methyl-d3)amino)methyl)phenyl)-8-(2,2-dimethyl-2,3-dihydrobenzofuran-5-yl)-3-(methyl-d3)-2-oxo-3,6-dihydroimidazo[4,5-d]pyrrolo[2,3-b]pyridin-1(2H)-yl)cyclopentyl)carbamate] | > 1000 | 250 to 1250 | **** (selectivity of >1750-fold to ≤5000-fold) | 250 to 1250 | **** (selectivity of >1750-fold to ≤5000-fold) | ≤ 2500 |
| COCCNC(=O)c1ccc(-c2[nH]c3ncc4c(c3c2-c2ccc3c(cnn3C(C)C)c2)n([C@@H]2CC[C@@H](NC(=O)OC)C2)c(=O)n4C)cc1F [Example 14, Methyl ((1R,3R)-3-(7-(3-fluoro-4-((2-methoxyethyl)carbamoyl)phenyl)-8-(1-isopropyl-1H-indazol-5-yl)-3-methyl-2-oxo-3,6-dihydroimidazo[4,5-d]pyrrolo[2,3-b]pyridin-1(2H)-yl)cyclopentyl)carbamate] | > 1000 | > 2500 | ****** (selectivity of >12500-fold) | > 2500 | ****** (selectivity of >12500-fold) | 5000 to 7500 |
| [2H]C([2H])([2H])N(Cc1ccc(-c2[nH]c3ncc4c(c3c2-c2ccc3c(c2)COC3(C)C)n([C@@H]2CC[C@@H](NC(=O)OC)C2)c(=O)n4C([2H])([2H])[2H])cc1)C([2H])([2H])[2H] [Example 29, Methyl ((1R,3R)-3-(7-(4-((bis(methyl-d3)amino)methyl)phenyl)-8-(1,1-dimethyl-1,3-dihydroisobenzofuran-5-yl)-3-(methyl-d3)-2-oxo-3,6-dihydroimidazo[4,5-d]pyrrolo[2,3-b]pyridin-1(2H)-yl)cyclopentyl)carbamate] | > 1000 | 250 to 1250 | **** (selectivity of >1750-fold to ≤5000-fold) | 1250 to 2500 | ****** (selectivity of >12500-fold) | ≤ 2500 |
| CCNC(=O)c1ccc(-c2[nH]c3ncc4c(c3c2-c2ccc3c(cnn3C(C)C)c2)n([C@@H]2CC[C@@H](NC(=O)OC)C2)c(=O)n4C)cc1 [Example 23, Methyl ((1R,3R)-3-(7-(4-(ethylcarbamoyl)phenyl)-8-(1-isopropyl-1H-indazol-5-yl)-3-methyl-2-oxo-3,6-dihydroimidazo[4,5-d]pyrrolo[2,3-b]pyridin-1(2H)-yl)cyclopentyl)carbamate] | > 1000 | 250 to 1250 | **** (selectivity of >1750-fold to ≤5000-fold) | 1250 to 2500 | ***** (selectivity of >5000-fold to ≤12500-fold) | 2500 to 5000 |
| COC(=O)N[C@@H]1CC[C@@H](n2c(=O)n(C)c3cnc4[nH]c(-c5ccc(CN(C)C)cc5)c(-c5ccc(F)cc5)c4c32)C1 [Example 28, Methyl ((1R,3R)-3-(7-(4-((dimethylamino)methyl)phenyl)-8-(4-fluorophenyl)-3-methyl-2-oxo-3,6-dihydroimidazo[4,5-d]pyrrolo[2,3-b]pyridin-1(2H)-yl)cyclopentyl)carbamate] | > 1000 | 250 to 1250 | ** (selectivity of >500-fold to ≤1500-fold) | > 2500 | **** (selectivity of >1750-fold to ≤5000-fold) | ≤ 2500 |
| CCNC(=O)c1ccc(-c2[nH]c3ncc4c(c3c2-c2ccc3c(cnn3C(C)C)c2)n([C@@H]2CC[C@@H](NC(=O)OC)C2)c(=O)n4C)cc1F [Example 6, Methyl ((1R,3R)-3-(7-(4-(ethylcarbamoyl)-3-fluorophenyl)-8-(1-isopropyl-1H-indazol-5-yl)-3-methyl-2-oxo-3,6-dihydroimidazo[4,5-d]pyrrolo[2,3-b]pyridin-1(2H)-yl)cyclopentyl)carbamate] | > 1000 | 1250 to 2500 | ***** (selectivity of >5000-fold to ≤12500-fold) | 1250 to 2500 | ***** (selectivity of >5000-fold to ≤12500-fold) | 2500 to 5000 |
| COC(=O)N[C@@H]1CC[C@@H](n2c(=O)n(C)c3cnc4[nH]c(-c5ccc(C(=O)N6CCOCC6)c(F)c5)c(-c5ccc6c(cnn6C(C)C)c5)c4c32)C1 [Example 16, Methyl ((1R,3R)-3-(7-(3-fluoro-4-(morpholine-4-carbonyl)phenyl)-8-(1-isopropyl-1H-indazol-5-yl)-3-methyl-2-oxo-3,6-dihydroimidazo[4,5-d]pyrrolo[2,3-b]pyridin-1(2H)-yl)cyclopentyl)carbamate] | > 1000 | 1250 to 2500 | ****** (selectivity of >12500-fold) | 1250 to 2500 | ****** (selectivity of >12500-fold) | 2500 to 5000 |
| COC(=O)N[C@@H]1CC[C@@H](n2c(=O)n(C)c3cnc4[nH]c(-c5ccc(C(=O)NCC(F)(F)F)c(F)c5)c(-c5ccc6c(cnn6C(C)C)c5)c4c32)C1 [Example 11, Methyl ((1R,3R)-3-(7-(3-fluoro-4-((2,2,2-trifluoroethyl)carbamoyl)phenyl)-8-(1-isopropyl-1H-indazol-5-yl)-3-methyl-2-oxo-3,6-dihydroimidazo[4,5-d]pyrrolo[2,3-b]pyridin-1(2H)-yl)cyclopentyl)carbamate] | > 1000 | > 2500 | ****** (selectivity of >12500-fold) | > 2500 | ****** (selectivity of >12500-fold) | > 7500 |
| [2H]C([2H])([2H])n1c(=O)n([C@@H]2CC[C@@H](NC(=O)OC)C2)c2c3c(-c4ccc5c(c4)COC5(C)C)c(-c4ccc(C(=O)N(C)C)cc4)[nH]c3ncc21 [Example 30, methyl ((1R,3R)-3-(8-(1,1-dimethyl-1,3-dihydroisobenzofuran-5-yl)-7-(4-(dimethylcarbamoyl)phenyl)-3-(methyl-d3)-2-oxo-3,6-dihydroimidazo[4,5-d]pyrrolo[2,3-b]pyridin-1(2H)-yl)cyclopentyl)carbamate] | > 1000 | 250 to 1250 | ***** (selectivity of >5000-fold to ≤12500-fold) | 250 to 1250 | ***** (selectivity of >5000-fold to ≤12500-fold) | ≤ 2500 |
